# In BindingDB's records for doi:10.1016/j.bmcl.2004.10.091 (Martin-Luther-University Halle-Wittenberg, 2005):
# Molecular target: Glycogen synthase kinase-3 beta (Rattus norvegicus, UniProt P18266)
# Experiment: Kinase Inhibition Assay
# Settings: 30 °C
# Method: (§1) Kinase activities were assayed in buffers containing substrate, enzyme, and inhibitor at 30 °C in the presence of 15 uM ATP/ [gamma-32P] ATP. 32P incorporation was measured with a scintillation counter. The IC50 is the inhibitor concentration, which inhibits 50% of kinase activity that catalyzes the transfer of the terminal phosphate from 32P labeled ATP to the substrate.
# Sequence of Glycogen synthase kinase-3 beta (P18266 whole entry): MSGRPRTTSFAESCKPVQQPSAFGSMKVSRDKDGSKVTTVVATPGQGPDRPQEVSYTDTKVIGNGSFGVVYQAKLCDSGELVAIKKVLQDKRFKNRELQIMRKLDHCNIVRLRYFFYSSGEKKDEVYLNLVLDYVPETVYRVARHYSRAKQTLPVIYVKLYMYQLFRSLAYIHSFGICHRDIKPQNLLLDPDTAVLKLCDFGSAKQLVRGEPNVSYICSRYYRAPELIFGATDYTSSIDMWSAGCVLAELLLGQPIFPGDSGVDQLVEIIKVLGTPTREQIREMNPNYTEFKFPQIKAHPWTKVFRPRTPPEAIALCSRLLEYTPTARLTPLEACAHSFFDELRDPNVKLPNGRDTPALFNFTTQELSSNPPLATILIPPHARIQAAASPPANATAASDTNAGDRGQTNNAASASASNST
row,SMILES,IC50 [µM]
1,"CC(C)c1cnn2c(Nc3ccc(S(=O)(=O)N(C)C)cc3)cc(NC3CCCC(N)C3)nc12 (centres undefined) [4-({5-[(3-aminocyclohexyl)amino]-3-(propan-2-yl)pyrazolo[1,5-a]pyrimidin-7-yl}amino)-N,N-dimethylbenzene-1-sulfonamide]",> 50
2,"CC(C)c1cnn2c(Nc3ccc(S(=O)(=O)N(C)C)cc3)cc(N[C@H]3CC[C@H](N)CC3)nc12 [4-({5-[(4-aminocyclohexyl)amino]-3-(propan-2-yl)pyrazolo[1,5-a]pyrimidin-7-yl}amino)-N,N-dimethylbenzene-1-sulfonamide]",40
3,"CN(C)S(=O)(=O)c1ccc(Nc2cc(N[C@H]3CC[C@H](N)CC3)nc3c(Br)cnn23)cc1Cl [4-({5-[(4-aminocyclohexyl)amino]-3-bromopyrazolo[1,5-a]pyrimidin-7-yl}amino)-2-chloro-N,N-dimethylbenzene-1-sulfonamide]",8.7
4,"CN(C)S(=O)(=O)c1ccc(Nc2cc(N[C@H]3CC[C@H](N)CC3)nc3c(Br)cnn23)cc1 [4-({5-[(4-aminocyclohexyl)amino]-3-bromopyrazolo[1,5-a]pyrimidin-7-yl}amino)-N,N-dimethylbenzene-1-sulfonamide]",3.4
5,"CN(C)S(=O)(=O)c1ccc(Nc2cc(N[C@H]3CC[C@H](N)CC3)nc3c(Cl)cnn23)cc1 [4-({5-[(4-aminocyclohexyl)amino]-3-chloropyrazolo[1,5-a]pyrimidin-7-yl}amino)-N,N-dimethylbenzene-1-sulfonamide]",5.1
6,"CN(C)S(=O)(=O)c1ccc(Nc2cc(N[C@H]3CC[C@H](N)CC3)nc3c(C#N)cnn23)cc1 [4-({5-[(4-aminocyclohexyl)amino]-3-cyanopyrazolo[1,5-a]pyrimidin-7-yl}amino)-N,N-dimethylbenzene-1-sulfonamide]",0.46
7,"CN(C)S(=O)(=O)c1ccc(Nc2cc(N[C@H]3CC[C@H](N)CC3)nc3c(C4CCCC4)cnn23)cc1 [4-({5-[(4-aminocyclohexyl)amino]-3-cyclopentylpyrazolo[1,5-a]pyrimidin-7-yl}amino)-N,N-dimethylbenzene-1-sulfonamide]",22
8,"CC(C)c1cnn2c(Nc3ccc(S(=O)(=O)N(C)C)cc3)cc(O[C@H]3CC[C@H](N)CC3)nc12 [4-({5-[(4-aminocyclohexyl)oxy]-3-(propan-2-yl)pyrazolo[1,5-a]pyrimidin-7-yl}amino)-N,N-dimethylbenzene-1-sulfonamide]",28
9,"CCN(CC)[C@H]1CC[C@H](Nc2cc(Nc3ccc(S(=O)(=O)N(C)C)cc3)n3ncc(C(C)C)c3n2)CC1 [4-[(5-{[4-(diethylamino)cyclohexyl]amino}-3-(propan-2-yl)pyrazolo[1,5-a]pyrimidin-7-yl)amino]-N,N-dimethylbenzene-1-sulfonamide]",> 50
10,"CCN[C@H]1CC[C@H](Nc2cc(Nc3ccc(S(=O)(=O)N(C)C)cc3)n3ncc(C(C)C)c3n2)CC1 [4-[(5-{[4-(ethylamino)cyclohexyl]amino}-3-(propan-2-yl)pyrazolo[1,5-a]pyrimidin-7-yl)amino]-N,N-dimethylbenzene-1-sulfonamide]",> 50
11,"Brc1cccc(-c2cc(NCc3ccncc3)n3nccc3n2)c1 [5-(3-bromophenyl)-N-(pyridin-4-ylmethyl)pyrazolo[1,5-a]pyrimidin-7-amine]",0.96
12,"N[C@H]1CC[C@H](Nc2cc(Nc3ccc(S(=O)(=O)c4ccccc4)cc3)n3ncc(Br)c3n2)CC1 [5-N-(4-aminocyclohexyl)-7-N-[4-(benzenesulfonyl)phenyl]-3-bromopyrazolo[1,5-a]pyrimidine-5,7-diamine]",5.3
13,"CC(C)c1cnn2c(Nc3ccc(S(C)(=O)=O)cc3)cc(Cl)nc12 [5-chloro-N-(4-methanesulfonylphenyl)-3-(propan-2-yl)pyrazolo[1,5-a]pyrimidin-7-amine]",11
14,"CS(=O)(=O)c1ccc(Nc2cc(Cl)nc3ccnn23)cc1 [5-chloro-N-(4-methanesulfonylphenyl)pyrazolo[1,5-a]pyrimidin-7-amine]",3.1
15,"CC(C)COc1cc(Nc2ccc(S(=O)(=O)N(C)C)cc2)n2ncc(C(C)C)c2n1 [N,N-dimethyl-4-{[5-(2-methylpropoxy)-3-(propan-2-yl)pyrazolo[1,5-a]pyrimidin-7-yl]amino}benzene-1-sulfonamide]",50
16,"CC(C)COc1cc(Nc2ccc(S(C)(=O)=O)cc2)n2ncc(C(C)C)c2n1 [N-(4-methanesulfonylphenyl)-5-(2-methylpropoxy)-3-(propan-2-yl)pyrazolo[1,5-a]pyrimidin-7-amine]",12

# Molecular target: Cyclin-dependent kinase 1/G2/mitotic-specific cyclin-B (Marthasterias glacialis, UniProt P15206+Q9DGD3)
# Sequence (Q9DGD3 whole entry): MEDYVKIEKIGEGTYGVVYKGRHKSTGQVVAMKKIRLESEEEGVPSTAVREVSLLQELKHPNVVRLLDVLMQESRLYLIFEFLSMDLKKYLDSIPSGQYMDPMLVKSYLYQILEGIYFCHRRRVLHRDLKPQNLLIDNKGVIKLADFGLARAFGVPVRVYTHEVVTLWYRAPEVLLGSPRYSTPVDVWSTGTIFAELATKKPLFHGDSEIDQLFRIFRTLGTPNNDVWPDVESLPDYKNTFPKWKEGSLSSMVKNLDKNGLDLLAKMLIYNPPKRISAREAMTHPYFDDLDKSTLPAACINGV
# Sequence (P15206 whole entry): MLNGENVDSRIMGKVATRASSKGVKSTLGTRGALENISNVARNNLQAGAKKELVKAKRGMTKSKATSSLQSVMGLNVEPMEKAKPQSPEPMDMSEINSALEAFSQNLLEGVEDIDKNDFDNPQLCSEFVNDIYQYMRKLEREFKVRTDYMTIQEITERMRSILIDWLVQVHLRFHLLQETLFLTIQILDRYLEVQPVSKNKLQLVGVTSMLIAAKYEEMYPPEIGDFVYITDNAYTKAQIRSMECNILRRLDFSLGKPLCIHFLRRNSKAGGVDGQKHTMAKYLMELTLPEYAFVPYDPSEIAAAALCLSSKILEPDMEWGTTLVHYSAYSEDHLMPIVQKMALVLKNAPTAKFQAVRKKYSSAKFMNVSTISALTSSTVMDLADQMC
# Experiment: Kinase Inhibition Assay
# Settings: pH 7.2; 30 °C
# Method: as §1
row,SMILES,IC50 [µM]
1,"Oc1ccc2oc3ncc(Cl)c(-c4ccccc4)c3c2c1 [4-chloro-3-phenyl-8-oxa-6-azatricyclo[7.4.0.0^{2,7}]trideca-1(13),2(7),3,5,9,11-hexaen-12-ol]",> 100
2,"CCOc1cnc2oc3ccc(O)cc3c2c1-c1ccccc1 [4-ethoxy-3-phenyl-8-oxa-6-azatricyclo[7.4.0.0^{2,7}]trideca-1(13),2(7),3,5,9,11-hexaen-12-ol]",> 100
3,"Cc1cnc2oc3ccc(O)cc3c2c1-c1ccccc1 [4-methyl-3-phenyl-8-oxa-6-azatricyclo[7.4.0.0^{2,7}]trideca-1(13),2(7),3,5,9,11-hexaen-12-ol]",> 100
